Experiments:
[1] = tested on: subjects with thalassemia major; test: Retrospective study of cardiac disease (NYHA class, echocardiogram) and survival under chelation therapy; assay type: in vivo, human; conditions: for Percentage of patients with improvement of cardiac disease diagnosed at first assessment: NYHA classification; for Percentage of patients with worsening of the cardiac disease: overall, patients with at least 2 cardiac assessments; for Newly diagnosed cardiac disease: patients cardiac disease-free at first assessment with a second cardiac assessment; for Deaths during the study period: patients treated for 4 or more years; for Normalization of the Ejection Fraction (EF) during chelation therapy: patients with abnormal EF at first assessment (2 deferiprone, 1 desferrioxamine); for Improvement of the Systolic Function (SF): patients with abnormal SF at first echocardiographic assessment; for Percentage of patients with improvement of cardiac disease diagnosed at first assessment / Worsening of the cardiac disease in patients with previously diagnosed cardiac disease: patients with cardiac disease at first assessment
Description: The study was a single centre, retrospective analysis of medical records of the occurrence of cardiac disease and of the survival of all subjects with thalassemia major treated with deferiprone or with desferrioxamine at the Centro Microcitemie of the University of Turin since Jan. 1, 1995. The medical records were evaluated of all patients ≧5 year-old at the time of the start of the review period and who had the diagnosis of thalassemia major confirmed by laboratory tests (electrophoresis and/or DNA analysis) and clinical criteria (participant's hemoglobin and transfusion dependency).
In addition to the clinical evaluation and laboratory testing, patients underwent periodic cardiac examination and assessment by a cardiologist, which in addition to the physical examination included echocardiogram and 24-hour electrocardiographic Holter monitoring if indicated. Cardiac disease was classified, according to the criteria defined by the New York Heart Association ^17, by a cardiologist experienced in heart problems in subjects with hemoglobinopathies and who was unaware of the chelation therapy of the patients. Worsening of the Systolic Function (SF) or the Ejection Fraction (EF) was defined as an abnormal result at the last assessment in patients with a normal result at the first assessment for the study. Improvement was defined as a normal result at the last assessment for patients with an abnormal result at the first assessment. The first cardiac assessment was considered as the baseline value for each patient. For patients with more than one echocardiograph assessment within a year of the study, the change was based on the mean of the results of that year.
Starting in 1995, a substantial proportion of subjects followed up at the center were treated with deferiprone, in clinical trials or for compassionate therapy. For these patients, deferiprone was given in a dose of 25 mg/kg of body weight, three times per day. The remaining patients had maintained therapy with desferrioxamine (20 to 60 mg/kg/day), given as a subcutaneous infusion for 8 to 12 hour, 4 to 7 days a week except for one patient. Although 2 patients in the desferrioxamine group had their chelation intensified with intravenous chelation during the period of this review, they were not excluded from the analysis.
The Kaplan-Meier analysis of heart disease free survival for patients who were disease-free (NYHA class not applicable=0) at the beginning of the review period was performed by using the procedure LIFETEST from SAS (SAS Institute, Cary, N.C.). The primary comparison of the two groups was based on the log rank test. […] In addition to the Kaplan-Meier analysis, the incidence of patients with a worsening of their NYHA class from the first to the last cardiac assessment was determined for, each treatment group. Chi-square test was performed to compare the incidence between the two groups.

[2] = tested on: iron overload in patients with thalassemia major; test: Iron overload assessment in the retrospective study (serum ferritin, hepatic iron by SQUID, urinary iron excretion); assay type: in vivo, human; conditions: for Mean ± SD overall urinary iron excretion: during the study period
Description: All patients were subjected to the same transfusion regimen aimed at maintaining the pretransfusion hemoglobin levels at 9.5–10.0 g/dL and the mean hemoglobin at 12.0 g/dL. At each episode of red blood cell transfusion, each patient was interviewed and underwent clinical evaluation by a staff physician. The iron overload was determined by monthly assessment of the transfusional-iron input and by quarterly assessment of serum ferritin.
To evaluate the differences related to chelation therapy between the two groups of subjects, after the start of the study, 2 sample t-tests or Chi-square tests were performed to compare their transfusional iron input, serum ferritin, percentage of subjects with more than 50% of their serum ferritin data greater than 2500 μg/L during the study, compliance with chelation therapy, liver iron concentration and urinary iron excretion.

[3] = Serum / blood concentrations at standard doses; assay type: in vivo, human; conditions: current / standard formulation
Description: Although a serum concentration of 100 μM for deferiprone can occur with the administration of a single 25 mg/kg dose^22, the serum concentration of desferrioxamine in patients receiving 40 mg/kg/day is usually less than 10 μM.^23. Since the desferrioxamine concentrations used in the myocyte study were more than 10fold the expected serum concentrations, the in vivo cardioprotective effect of this chelator would be expected to be less than that of deferiprone, but not four times less protective placing the patient at a 4-fold greater likelihood of developing a worsening of their cardiac status with desferrioxamine.
Another factor may be related to the different pharmacokinetic characteristics of deferiprone and desferrioxamine when these drugs are given at standard doses, as in the present study. For example, deferiprone at 25 mg/kg, produces peak concentrations of approximately 100 μM with serum concentrations declining to about 10 μM in 6 hours, and this pattern is repeated three times daily, seven days a week. On the other hand, desferrioxamine at 40 mg/kg achieves concentrations of only 5–10 μM and only for the duration of the infusion (8–12 hours/day, 5–7 days per week). The long periods of time without the presence of an iron chelator may have a profound effect on the generation of iron-induced activity within myocytes and through non-transferrin bound iron. […]

[4] = tested on: subjects with thalassemia; test: Prospective clinical study of the Assignee in 187 subjects with thalassemia, heart failure; assay type: in vivo, human; conditions: treated for up to 5 years
Text: The Assignee completed other studies wherein the largest prospective clinical study ever conducted for an iron chelator was made. One hundred eighty-seven subjects with thalassemia were enrolled in this trial conducted by Drs. A. Cohen, R. Galanello, A. Piga, and V. De […] in 3 centres in Italy and 1 center in the USA.

[5] = tested on: subjects with thalassemia major; conditions: one patient participating in the study (ref. 31); cited from earlier work
[6] = tested on: cardiac iron; conditions: cited from earlier work; for Change in T2 relaxation time in a randomized trial: mean treatment period of 22 months
[7] = tested on: iron-loaded rat neonatal myocytes; conditions: cited from earlier work; for Cardio-protective effects against iron-induced damage in neonatal rat myocytes: 100 μM; for Protecting the myocytes against iron-induced damage: at the concentrations used; for Removing iron from iron-loaded rat neonatal myocytes: in vitro
[8] = tested on: mouse model; conditions: mouse model of Gale et al; cited from earlier work
[9] = cited from earlier work
[10] = tested on: patients; conditions: large safety study; cited from earlier work

Row | SMILES | Percentage of patients with improvement of cardiac disease diagnosed at first assessment [1] | Worsening of the SF at the last assessment ([1]; number of patients) | Percentage of patients with worsening of the cardiac disease [1] | Newly diagnosed cardiac disease [1] | Deaths during the study period [1] | Normalization of the Ejection Fraction (EF) during chelation therapy [1] | Improvement of the Systolic Function (SF) [1] | Worsening of the cardiac disease in patients with previously diagnosed cardiac disease [1] | Mean ± SD hepatic iron concentration - SQUID during the last year of the review period [2] | Percentage (%) of patients with more than 50% of their serum ferritin results > 2,500 μg/L during the review period [2] | Mean ± SD overall urinary iron excretion [2] | Mean serum ferritin ± SD at year 4 of the review period [2] | Change in T2 relaxation time in a randomized trial [6] | Cardio-protective effects against iron-induced damage in neonatal rat myocytes [7] | Protecting the myocytes against iron-induced damage [7] | Removing iron from iron-loaded rat neonatal myocytes [7] | Reduction of iron concentrations from the heart [8] | other results
1 | Cc1c(O)c(=O)ccn1C [Deferiprone, 1,2-dimethyl-3-hydroxypyrid-4one] | 40 (2/5) % | 2 patients | 4 (2/45) % | 5% | No patient | All three patients presented a normalization of the EF | 2 of the 4 | none of the 5 | 2.5 ± 1.2 mg FE/g liver wet weight | 33% | 18.1 ± 13.2 mg Fe/day | 2402 ± 1331 µg/L | significant improvement | equal cardio-protective effects | equally effective | effective | none of the compounds studied, being desferrioxamine and deferiprone among others, reduced iron concentrations from the heart | Percentage of patients with improvement of cardiac disease diagnosed at first assessment ([1]; listed as deferiprone): 40%; Percentage of patients with worsening of the cardiac disease ([1]; listed as deferiprone): 4%; Time after which blood levels fall to very low levels [3]: about 4 hours; Occurrence of heart failure [4]: no heart failure occurred; Reversal of iron-induced congestive heart failure [5]: successful reversal; T2 relaxation time, after treatment ([6]; 23 patients treated for over one year, normal 32 msec): 30.5 ± 6.7 ms; T2 relaxation time, before ([6]; 23 patients, start value, normal 32 msec): 26.6 ± 8.4 ms; Serum concentrations declining to ([9]; 25 mg/kg, in 6 hours): about 10 μM; Peak concentrations ([9]; 25 mg/kg): approximately 100 μM; Serum concentration ([9]; single 25 mg/kg dose): 100 µM; Development of agranulocytosis [10]: about 1%
2 | CC(=O)N(O)CCCCCNC(=O)CCC(=O)N(O)CCCCCNC(=O)CCC(=O)N(O)CCCCCN [Desferrioxamine] | 27 (3/11) % | 6 patients | 17 (10/59) % | 19% | No patient | All three patients presented a normalization of the EF | 5 of the 8 | one of the 11 | 1.8 ± 1.0 mg FE/g liver wet weight | 21% | 15.5 ± 12.9 mg Fe/day | 2050 ± 1319 µg/L | no change | equal cardio-protective effects | equally effective | effective | none of the compounds studied, being desferrioxamine and deferiprone among others, reduced iron concentrations from the heart | Percentage of patients with improvement of cardiac disease diagnosed at first assessment ([1]; listed as desferrioxamine): 27%; Likelihood to develop a worsening of cardiac status versus deferiprone-treated patients ([1]; desferrioxamine versus deferiprone, same period): 4 fold; Worsening of the EF ([1]; number of patients): 3 patients; Percentage of patients with worsening of the cardiac disease ([1]; listed as desferrioxamine): 17%; Iron removed, comparison of the two chelators ([7]; equimolar concentrations): removed more iron than deferiprone

Source: patent US7049328B2, “Use for deferiprone” (priority 2000, dated 2006)
